The supplement of paper PMC12317010
Structures can show the parent of a compound that is named as a salt.

Test: collision cross section in nitrogen (drift tube, single-field); higher = larger gas-phase ion size
[1] = ion type: [M+H], ion source: APCI, ion mode: Positive
[2] = ion type: [M+H], ion source: ESI, ion mode: Positive
[3] = ion type: [M+Na], ion source: ESI, ion mode: Positive
[4] = ion type: [M-H], ion source: ESI, ion mode: Negative
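Note: chemical standards at 10 µM analysed by drift tube IMS-QTOF MS in about 3.95 torr nitrogen, mean of duplicate injections differing ≤1%, mass error below 10 ppm.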

Compound	collision cross section in nitrogen [3]	collision cross section in nitrogen [2]	collision cross section in nitrogen [4]	also measured
Cc1ccc(C(=O)c2cc(O)c(O)c([N+](=O)[O-])c2)cc1 [Tolcapone]	–	–	162.8 Å²	–
COP(=S)(OC)Oc1c(Cl)cc(C)cc1Cl [Tolclofos-methyl]	169.1 Å²	153.6 Å²	–	–
Cc1ccc(N2C(=O)C=CC2=O)cc1N1C(=O)C=CC1=O [Toluene-2,4-dimaleimide]	–	–	–	collision cross section in nitrogen [1]: 163.3 Å²
Cc1ccc(N(SC(F)(Cl)Cl)S(=O)(=O)N(C)C)cc1 [Tolylfluanid]	177.6 Å²	–	–	–
Cc1c(C(=O)c2cnn(C)c2O)ccc(S(C)(=O)=O)c1C1=NOCC1 [Topramezone]	181.1 Å²	–	182.9 Å²	–
CCON=C(CC)C1=C(O)CC(c2c(C)cc(C)cc2C)CC1=O (centres undefined) [Tralkoxydim]	196.2 Å²	187 Å²	188.9 Å²	collision cross section in nitrogen [1]: 187.3 Å²
N#Cc1c(-c2ccc(Cl)cc2)[nH]c(C(F)(F)F)c1Br [Tralopyril]	–	–	157.9 Å²	–
COc1cccc([C@@]2(O)CCCC[C@@H]2CN(C)C)c1 [Tramadol]	171.7 Å²	161.1 Å²	–	collision cross section in nitrogen [1]: 160.6 Å²
CCCCCCCCOC(=O)c1ccc(C(=O)OCCCCCCCC)c(C(=O)OCCCCCCCC)c1 [Tri-n-octyl trimellitate]	263.7 Å²	259 Å²	–	–
Cc1ccccc1OP(=O)(Oc1ccccc1C)Oc1ccccc1C [Tri-o-cresyl phosphate]	192.7 Å²	182.3 Å²	–	collision cross section in nitrogen [1]: 182.7 Å²
CC(C)(C)C(=O)C(Oc1ccc(Cl)cc1)n1cncn1 (centres undefined) [Triadimefon]	–	173.6 Å²	167.7 Å²	collision cross section in nitrogen [1]: 174.6 Å²
c1ccc(CN(Cc2ccccc2)Cc2ccccc2)cc1 [Tribenzylamine]	–	169.2 Å²	–	collision cross section in nitrogen [1]: 169.1 Å²
O=C(Nc1ccc(Br)cc1)c1cc(Br)cc(Br)c1O [Tribromsalan]	–	–	173.7 Å²	–
CCCCSP(=O)(SCCCC)SCCCC [Tribufos]	194.4 Å²	177.2 Å²	–	collision cross section in nitrogen [1]: 177.5 Å²
CCCCCCCCCCCCCC[P+](CCCC)(CCCC)CCCC [Tributyltetradecylphosphonium chloride]	–	–	–	collision cross section in nitrogen (ion source: APCI, ion mode: Positive, ion type: [M]+ (permanent cation)): 224 Å²; collision cross section in nitrogen (ion source: ESI, ion mode: Positive, ion type: [M]+ (permanent cation)): 224.5 Å²
COP(=O)(OC)C(O)C(Cl)(Cl)Cl (centres undefined) [Trichlorfon]	151.7 Å²	–	–	–
O=C(Nc1ccc(Cl)cc1)Nc1ccc(Cl)c(Cl)c1 [Triclocarban]	–	–	169 Å²	–
CCCCOCCOC(=O)COc1nc(Cl)c(Cl)cc1Cl [Triclopyr 2-butoxyethyl ester]	176.3 Å²	–	–	–
C=CC(=O)OCC1CC2CC1C1CCC(COC(=O)C=C)C21 (centres undefined) [Tricyclodecanedimethanol diacrylate]	176.9 Å²	–	–	–

Compound	collision cross section in nitrogen [3]	collision cross section in nitrogen [2]	collision cross section in nitrogen [4]	also measured
CCOC(=O)CP(=O)(OCC)OCC [Triethyl phosphonoacetate]	155 Å²	143.7 Å²	–	collision cross section in nitrogen [1]: 143.6 Å²
CO/N=C(/C(=O)OC)c1ccccc1CO/N=C(\C)c1cccc(C(F)(F)F)c1 [Trifloxystrobin]	193 Å²	187.2 Å²	–	collision cross section in nitrogen [1]: 187.4 Å²
COc1cc(OC)nc(NC(=O)NS(=O)(=O)c2ncccc2OCC(F)(F)F)n1 [Trifloxysulfuron-sodium]	194.5 Å²	192 Å²	190.2 Å²	–
CCCOC/C(=N\c1ccc(Cl)cc1C(F)(F)F)n1ccnc1 [Triflumizole]	–	180 Å²	170.3 Å²	collision cross section in nitrogen [1]: 179.8 Å²
O=C(NC(=O)c1ccccc1Cl)Nc1ccc(OC(F)(F)F)cc1 [Triflumuron]	186.6 Å²	–	179.1 Å²	–
O=S(=O)(O)C(F)(F)F [Trifluoromethanesulfonic acid]	–	–	110.8 Å²	–
CCCN(CCC)c1c([N+](=O)[O-])cc(C(F)(F)F)cc1[N+](=O)[O-] [Trifluralin]	–	–	169.2 Å²	–
CC(C)COP(=O)(OCC(C)C)OCC(C)C [Triisobutyl phosphate]	183.6 Å²	–	–	–
CC(O)CN(CC(C)O)CC(C)O (centres undefined) [Triisopropanolamine]	143.9 Å²	141.5 Å²	–	collision cross section in nitrogen [1]: 141.3 Å²
C[C@]12CC[C@H]3[C@@H](CC[C@@]45O[C@@H]4C(O)=C(C#N)C[C@]35C)[C@@H]1CC[C@@H]2O [Trilostane]	–	–	186.2 Å²	–
O=C(O)c1ccc2c(c1)C(=O)OC2=O [Trimellitic anhydride]	–	–	146.5 Å²	–
CC(CCCCN)C(C)(C)N (centres undefined) [Trimethylhexane-1,6-diamine]	–	140.4 Å²	–	–
C=CC(=O)OCC(CC)(COC(=O)C=C)COC(=O)C=C [Trimethylolpropane triacrylate]	165.9 Å²	–	–	–
C(=C(c1ccccc1)c1ccccc1)c1ccccc1 [Triphenylethylene]	–	153.5 Å²	–	–
O[Si](c1ccccc1)(c1ccccc1)c1ccccc1 [Triphenylsilanol]	–	–	171 Å²	–
CCCOP(=O)(OCCC)OCCC [Tripropyl phosphate]	168.5 Å²	–	–	–
O=P(OCCCl)(OCCCl)OCCCl [Tris(2-chloroethyl) phosphate]	160.2 Å²	–	–	–
CC(CCl)OP(=O)(OC(C)CCl)OC(C)CCl (centres undefined) [Tris(2-chloroisopropyl)phosphate]	171.9 Å²	–	–	–

The next lines start with results.

collision cross section in nitrogen [3]	Compound	collision cross section in nitrogen [2]	collision cross section in nitrogen [4]	also measured
183.1 Å²	Cc1ccc(S(=O)(=O)NC(=O)NN2CCCCCC2)cc1 [Tolazamide]	175.4 Å²	178.1 Å²	collision cross section in nitrogen [1]: 175.5 Å²
176.6 Å²	CCCCNC(=O)NS(=O)(=O)c1ccc(C)cc1 [Tolbutamide]	–	165 Å²	–
185.4 Å²	Cc1cccc(N(C)C(=S)Oc2ccc3ccccc3c2)c1 [Tolnaftate]	175.4 Å²	–	collision cross section in nitrogen [1]: 175.5 Å²
177.6 Å²	CCCc1c(OCCCCc2nnn[nH]2)ccc(C(C)=O)c1O [Tomelukast]	–	–	–
171.7 Å²	CC1(C)O[C@@H]2[C@@H](CO[C@@]3(COS(N)(=O)=O)OC(C)(C)O[C@@H]23)O1 [Topiramate]	–	174.7 Å²	–
195.7 Å²	O=c1n(CCCN2CCN(c3cccc(Cl)c3)CC2)nc2ccccn12 [Trazodone hydrochloride]	192 Å²	–	collision cross section in nitrogen [1]: 192.5 Å²
207.9 Å²	NC(=O)Cn1c(=O)cc(CCN2CCN(c3nccc4sccc34)CC2)c2ccc(F)cc21 [Trelanserin]	202.8 Å²	203.8 Å²	collision cross section in nitrogen [1]: 200.1 Å²
189.3 Å²	C=CCOC(=O)c1ccc(C(=O)OCC=C)c(C(=O)OCC=C)c1 [Triallyl trimellitate]	–	–	–
173 Å²	Nc1nc(N)c2nc(-c3ccccc3)c(N)nc2n1 [Triamterene]	158.3 Å²	157.7 Å²	collision cross section in nitrogen [1]: 158.4 Å²; collision cross section in nitrogen (ion type: [M+], ion source: APCI, ion mode: Positive): 155 Å²
202.7 Å²	CCCCOC(=O)CC(O)(CC(=O)OCCCC)C(=O)OCCCC [Tributyl citrate]	–	–	–
231.4 Å²	CCCCCCCC(=O)OCC(COC(=O)CCCCCCC)OC(=O)CCCCCCC [Tricaprylin]	–	–	–
169.1 Å²	CCOC(=O)CC(O)(CC(=O)OCC)C(=O)OCC [Triethyl citrate]	–	–	–
207.3 Å²	CCCCC(CC)C(=O)OCCOCCOCCOC(=O)C(CC)CCCC (centres undefined) [Triethylene glycol bis(2-ethylhexanoate)]	–	–	–
151.3 Å²	CC(=O)OCCOCCOCCOC(C)=O [Triethylene glycol diacetate]	–	–	–
138.1 Å²	COCCOCCOCCOC [Triethylene glycol dimethyl ether]	–	–	–
131.5 Å²	OCCOCCOCCO [Triethylene glycol]	–	–	–
167.5 Å²	CCOC(=O)C1CC(=O)C(=C(O)C2CC2)C(=O)C1 (centres undefined) [Trinexapac-ethyl]	–	–	–
182.6 Å²	O=P(c1ccccc1)(c1ccccc1)c1ccccc1 [Triphenylphosphine oxide]	162.9 Å²	–	collision cross section in nitrogen [1]: 163 Å²
161.2 Å²	CCC(=O)OCC(COC(=O)CC)OC(=O)CC [Tripropionin]	–	–	–
169.9 Å²	C=CC(=O)OCC(C)OCC(C)OCC(C)OC(=O)C=C (centres undefined) [Tripropylene glycol diacrylate]	–	–	–
148.8 Å²	COCC(C)OCC(C)OCC(C)O (centres undefined) [Tripropylene glycol monomethyl ether]	–	–	–
144.9 Å²	CC(O)COC(C)COC(C)CO (centres undefined) [Tripropylene glycol]	–	–	–
163.2 Å²	O=c1n(CC2CO2)c(=O)n(CC2CO2)c(=O)n1CC1CO1 (centres undefined) [Tris(2,3-epoxypropyl)isocyanurate]	160.1 Å²	–	collision cross section in nitrogen [1]: 158.6 Å²
171.4 Å²	CC(Cl)COP(=O)(OCC(C)Cl)OCC(C)Cl (centres undefined) [Tris(2-chloropropyl) phosphate]	–	–	–
231.9 Å²	CCCCC(CC)COP(=O)(OCC(CC)CCCC)OCC(CC)CCCC (centres undefined) [Tris(2-ethylhexyl) phosphate]	–	–	–
